Source: patent US10499648B2, “Sterilization method, formulation for sterilization use, and device for producing sterilizing liquid” (priority 2014, dated 2019)

Tests used:
[1] = equilibrium O2-. + H+ <-> HOO.; cited from earlier work
Escherichia coli = experiment: Sterilization effect of synthesized peroxynitric acid on Escherichia coli (FIG. 8); type: cell-based; settings: peroxynitric acid approximately 0.02 mM or higher; pH 3.5; 25° C.; from 7 orders to 2 orders or less (detection limit)
Method: In FIGS. 8, 9, and 11, solution of peroxynitric acid has a pH value of 3.5 and a temperature of 25° C. In the heat treatment of FIG. 10, the solution of peroxynitric acid is heated for thirty minutes to have a temperature of 60° C.
(§1) In this experiment, the detection limit was reached when the number of living microorganisms was in 2 orders of magnitude or less, then further sterilization effect was not measured. Thus, if the concentration of the synthesized peroxynitric acid is further increased, the number of living microorganisms is expected to be further reduced. In the experiment, diluted solution of the synthesized peroxynitric acid was used. If undiluted solution is used, more powerful microbicidal activity is expected to be exerted. The peroxynitric acid synthesized in the fourth embodiment has a concentration of 420 mM. For example, using undiluted solution of the synthesized peroxynitric acid probably lowers the number of living microorganisms to further […] of magnitude or more.

Bacillus subtilis spore = experiment: Sterilization effect of synthesized peroxynitric acid on Bacillus subtilis spore (FIGS. 9-11); type: cell-based; settings: for drop of the number of living microorganisms in Bacillus subtilis spore: peroxynitric acid approximately 0.5 mM or higher, pH 3.5
Method: Where the solution of the synthesized peroxynitric acid has a pH value of 3.5 and the peroxynitric acid has a concentration of approximately 0.5 mM or higher, the number of living microorganisms in Bacillus subtilis spore drops from 6 orders of magnitude to 2 orders of magnitude or less, which indicates a drop of 4 orders of magnitude or more.
as §1

[2] = Lifetime / decomposition of synthesized peroxynitric acid depending on temperature; type: physicochemical; settings: solution at 0° C.
Source text: The synthesis reaction of peroxynitric acid progresses also at a room temperature. To be specific, peroxynitric acid is synthesized at a room temperature; however, the lifetime of the synthesized peroxynitric acid depends on temperature. Where being saved at a room temperature, the synthesized peroxynitric acid is quickly decomposed to turn into nitric acid in a short time. When the temperature rises by 5 degrees, the rate of decomposition doubles. For example, the rate of decomposition at a temperature of 20° C. is 16 times as fast as that at a temperature of 0° C. (zero). Thus, the synthesized peroxynitric acid turns into nitric acid solution very quickly at a temperature of 50° C. The half-life of the peroxynitric acid is 10 minutes or so at a room temperature. The half-life of the peroxynitric acid is a few hours (2 to 3 hours or so) at a temperature of 0 (zero) degrees.
In order to preserve the solution with the biocidal activity maintained, it is preferable to set the temperature of the solution as low as possible. For example, the solution is adjusted to have a temperature of 0° C., which enables the solution to be stored/preserved for a couple of hours, for example, for 5 to 8 hours or so. Freezing the solution allow the solution to be preserved for a longer time.

[3] = Activation energy in decomposition response, compared with literature value; type: physicochemical
Method: As for the substance corresponding to the retention time RT of 2.8 minutes shown in FIG. 5, an activation energy in decomposition response thereof was actually measured. The activation energy measured was compared to an activation energy in decomposition response of peroxynitric acid. The comparison result is provided as follows: • Actual measured value: 109 kJ/mol • Literature value: 110 kJ/mol • Both the values are in good accord with each other. Thereby, the substance corresponding to the retention time RT of 2.8 minutes is probably peroxynitric acid.
The activation energy in decomposition response herein was cited from the following document.
J. Phys. Chem. A 1997, 101, 8822-8829 “Peroxynitric Acid Decay Mechanisms and Kinetics at Low pH”.

[4] = Time needed for sterilization depending on solution temperature; settings: solution temperature 30° C.
Method: Where the solution has a temperature of 10° C. or lower, the solution may be applied to an object to be sterilized with the temperature remaining unchanged. It is also possible to raise the temperature of the solution to 20° C. or more at the time of application of the solution to the object to be sterilized. It is preferable for the solution to have a lower temperature in order to preserve peroxynitric acid, but at the same time, is preferable for the solution to have a certain level of high temperature for sterilization. To be specific, while the solution having a temperature of 0° C. needs time to sterilize the object, the solution having a temperature of 30° C. needs only 20 seconds to sufficiently sterilize the object. When the situation permits to take time to sterilize the object, it is preferable to perform sterilization at a low temperature. When quick sterilization is needed, it is preferable to raise the temperature, for example, to 30 through 40° C.

[5] = Sterilization effect after adding enzyme for disappearing superoxide anion radicals
Source text: The peroxynitric acid in the solution is probably a precursor which produces the superoxide anion radicals (O2—.). The superoxide anion radicals (O2—.) are probably precursors which produce the hydroperoxy radicals (HOO.).

[6] = J. Phys. Chem. A 1997, 101, 8822-8829; cited from earlier work

Compound	pKa (acid dissociation constant) [1]	drop of the fungicidal concentration (number of living microorganisms) of Escherichia coli (Escherichia coli) [orders]	drop of the number of living microorganisms in Bacillus subtilis spore (Bacillus subtilis spore; FIG. 9, 25° C., from 6 orders to 2 orders or less (detection limit)) [orders]	drop of the number of living microorganisms in Bacillus subtilis spore (Bacillus subtilis spore; FIG. 10)	number of living microorganisms in Bacillus subtilis spore (Bacillus subtilis spore; FIG. 10, solution pH 6.5, stays in 6 orders of magnitude)	sterilization effect on Bacillus subtilis spore after heat treatment (Bacillus subtilis spore; FIG. 11, peroxynitric acid heated thirty minutes to 60° C., count stays in 6 orders of magnitude)	time the solution can be stored/preserved with biocidal activity maintained [2] [h]	activation energy in decomposition response, actual measured value [3] [kcal/mol]	time needed to sufficiently sterilize the object [4] [s]	sterilization effect with enzyme for disappearing superoxide anion radicals in the solution [5]	activation energy in decomposition response, literature value [6] [kcal/mol]
[O]O [hydroperoxy radicals (HOO.), hydroperoxy radicals]	4.8										
peroxynitric acid		≥ 5	≥ 4	≥ 4 orders of magnitude	approximately constant independently of the concentration of the peroxynitric acid	disappearance of sterilization effect	5 to 8	26.1	20	sterilization effect is not observed	26.3
